How the values were obtained:
[1] = Cytotoxicity evaluation, CellTiter-Blue Cell Viability Assay; type: cell-based; conditions: human, Zluc cells
[2] = tested on: HCV genotype 1b replicon in Huh-7-derived cell line (Zluc); assay: HCV replicon assay (luciferase reporter); type: cell-based; conditions: Hepatitis C virus; Zluc cells, 72 hours of incubation
Method: Huh-7-derived cell line (Zluc) that harbors an HCV genotype 1b replicon and a luciferase reporter gene was grown in Dulbecco's Modified Eagle Medium (DMEM) supplemented with 10% fetal bovine serum, 2 mM GlutaMAX, 1% MEM nonessential amino acids, 100 IU/mL penicillin, 100 μg/mL streptomycin, and 0.5 mg/mL Geneticin® (G418). For dose response testing the cells were seeded in 96-well plates at 7.5×10^3 cells per well in a volume of 50 μL, and incubated at 37° C./5% CO2. Drug solutions were made up freshly in Huh-7 media as 2× stocks. Ten additional 5-fold dilutions were prepared from these stocks in DMEM without G418. At least three hours after Zluc cells were seeded, drug treatment was initiated by adding 50 μL of drug dilutions to the plates in duplicate. Final concentrations of drug ranged from 100 μM to 0.0000512 μM. Cells were then incubated at 37° C./5% CO2. Alternatively, compounds were tested at two concentrations (1 μM and 10 μM). […] For this, media was removed from the plates via gentle tapping. […] The plates were shaken gently for 3 min at room temperature and luminescence was measured on a Victor^3 V 1420 multilabel counter (Perkin Elmer) with a 1 second read time using a 700 nm cut-off filter. The EC50 values were calculated from dose response curves from the resulting best-fit equations determined by Microsoft Excel and XLfit 4.1 software. […]

[3] = biological target: T1, wild-type HCV genotype 1b NS5B protein (recombinant HCV polymerase) (Hepatitis C virus genotype 1b, UniProt Q9WMX2); assay: HCV polymerase enzyme assay, wild-type; type: biochemical
T1 construct: HCV genotype 1b NS5B protein were used to generate recombinant HCV polymerases (with a deletion of the 21 carboxy terminal amino acids); made in house
Text: (§1) Test compounds in the form of nucleoside triphosphates were examined for inhibitory activity against purified HCV polymerase in a standard assay. Bacterial expression constructs encoding the approximately 65 kDa HCV genotype 1b NS5B protein were used to generate recombinant HCV polymerases (with a deletion of the 21 carboxy terminal amino acids). Both the wild-type genotype 1b protein and protein containing the S282T mutation were expressed and purified for use in the enzymatic activity assay.
(§2) The enzymatic activity assay measured the inhibitory effect of increasing concentrations of test compound on the incorporation of α-[^33P]-labeled nucleotide into trichloroacetic acid-precipitable material. Recombinant polymerase and synthetic RNA template were combined in reaction buffer containing ribonucleoside triphosphates, α-[^33P]-labeled nucleotide and eight concentrations of test compound in three-fold dilutions. […]
(§3) Reactions were terminated by the addition of ice-cold trichloroacetic acid and sodium pyrophosphate to promote precipitation of newly-synthesized ribonucleic acid. Precipitable material from the reactions was collected by filtration onto 96-well filter plates, washed extensively with water, and quantified by liquid scintillation.
(§4) The inhibitory activity of test compounds was determined by fitting results to dose-response curves using XLfit software.

[4] = biological target: T2, HCV genotype 1b NS5B protein containing the S282T mutation (Hepatitis C virus genotype 1b, UniProt Q9WMX2, S2701T); assay: HCV polymerase enzyme assay, S282T mutant; type: biochemical; conditions: nucleoside triphosphate; S282T genotype 1b NS5B; 2 h at 30° C.
T2 construct: HCV genotype 1b NS5B protein were used to generate recombinant HCV polymerases (with a deletion of the 21 carboxy terminal amino acids); made in house
Text: as §1, §2, §3, §4

Row | SMILES | CC50 at 72 h [1] | EC50 [2] | IC50 [3] | IC50 [4]
1 | O=c1ccn([C@@H]2O[C@](F)(CO)[C@@H](O)[C@H]2F)c(=O)[nH]1 [Compound 101, 1-((2R,3R,4S,5S)-3,5-difluoro-4-hydroxy-5-(hydroxymethyl)tetrahydrofuran-2-yl)pyrimidine-2,4(1H,3H)-dione] | > 50000 nM | > 10000 nM |  | 
2 | Nc1ccn([C@@H]2O[C@](F)(CO)[C@@H](O)[C@H]2F)c(=O)n1 [Compound 105] | > 50000 nM | 250 to 1000 nM |  | 
3 | O=c1ccn([C@@H]2O[C@](F)(COP(=O)(O)OP(=O)(O)OP(=O)(O)O)[C@@H](O)[C@H]2F)c(=O)[nH]1 [Compound 201] |  |  | 250 to 1000 nM | < 250 nM
4 | Nc1ccn([C@@H]2O[C@](F)(COP(=O)(O)OP(=O)(O)OP(=O)(O)O)[C@@H](O)[C@H]2F)c(=O)n1 [Compound 205] |  |  | < 250 nM | < 250 nM
